In patent US10392368B2, “Pyrazolo and triazolo bicyclic compounds as JAK kinase inhibitors” (THERAVANCE BIOPHARMA R&D IP, LLC, priority 2017, dated 2019):
Like-named read-outs stand apart in the source and are kept apart here.

What was measured:
[1] = biological target: T1, JAK1 (Homo sapiens, UniProt P23458); assay: Biochemical JAK1 kinase assay (LanthaScreen); conditions: for Ki: read-out: JAK 1 (pKi) (converted)
T1 construct: GST; purchased Life Technologies
In short: (§1)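 TR-FRET read-out: terbium anti-pSTAT1 (pTyr701) antibody, 2 nM, with 10 mM EDTA quench, emission ratio 520/495 nm. GST-JAK phosphorylates GFP-STAT1 peptide for 1 h at ambient temperature after 1 h compound pre-incubation. pIC50 from dose-response converted to pKi by Cheng-Prusoff.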

[2] = biological target: T2, JAK2 (Homo sapiens, UniProt O60674); assay: Biochemical JAK2 kinase assay (LanthaScreen); conditions: for Ki: read-out: JAK 2 (pKi) (converted)
T2 construct: GST; purchased Life Technologies
T2 sequence (O60674 whole entry): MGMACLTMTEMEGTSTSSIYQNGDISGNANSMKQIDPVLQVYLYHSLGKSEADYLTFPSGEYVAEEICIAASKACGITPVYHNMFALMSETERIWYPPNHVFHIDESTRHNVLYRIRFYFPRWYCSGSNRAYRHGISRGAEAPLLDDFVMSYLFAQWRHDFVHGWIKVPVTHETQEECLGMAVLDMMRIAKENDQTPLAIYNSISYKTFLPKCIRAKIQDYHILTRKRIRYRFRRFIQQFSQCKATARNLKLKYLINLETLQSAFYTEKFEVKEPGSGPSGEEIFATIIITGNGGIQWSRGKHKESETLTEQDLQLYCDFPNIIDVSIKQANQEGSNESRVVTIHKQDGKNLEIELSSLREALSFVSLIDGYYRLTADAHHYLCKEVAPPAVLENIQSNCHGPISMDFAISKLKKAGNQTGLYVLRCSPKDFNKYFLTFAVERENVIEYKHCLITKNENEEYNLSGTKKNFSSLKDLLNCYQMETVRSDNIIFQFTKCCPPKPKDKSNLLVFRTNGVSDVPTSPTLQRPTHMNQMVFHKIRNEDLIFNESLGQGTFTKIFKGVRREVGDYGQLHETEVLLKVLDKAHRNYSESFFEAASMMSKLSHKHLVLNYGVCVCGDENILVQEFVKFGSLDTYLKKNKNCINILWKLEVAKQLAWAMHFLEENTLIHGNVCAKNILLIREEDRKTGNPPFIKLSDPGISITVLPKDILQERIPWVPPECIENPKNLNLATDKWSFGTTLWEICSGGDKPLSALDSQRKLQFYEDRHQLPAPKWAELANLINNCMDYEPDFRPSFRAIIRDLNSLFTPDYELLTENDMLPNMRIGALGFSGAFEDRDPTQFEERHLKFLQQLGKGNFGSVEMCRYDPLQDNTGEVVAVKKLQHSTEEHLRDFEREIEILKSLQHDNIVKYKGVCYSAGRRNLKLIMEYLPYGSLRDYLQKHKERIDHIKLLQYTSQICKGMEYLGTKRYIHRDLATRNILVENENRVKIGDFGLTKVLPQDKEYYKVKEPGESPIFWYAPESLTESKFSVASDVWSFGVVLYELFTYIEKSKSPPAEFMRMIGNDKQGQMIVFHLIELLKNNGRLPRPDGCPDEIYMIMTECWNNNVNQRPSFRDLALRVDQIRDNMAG
In short: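 pKi values derive from pIC50 via Cheng-Prusoff, with IC50 from a 4-parameter fit of percent-inhibition TR-FRET data using Tb-anti-pSTAT1 (pTyr701) detection. Compound, GST-JAK2 and GFP-STAT1 substrate were pre-incubated 1 h, then ATP started a 1 h ambient reaction (HEPES pH 7.5, 10 mM MgCl2, 1% DMSO).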

[3] = biological target: T3, Tyk2 (Homo sapiens, UniProt P29597); assay: Biochemical Tyk2 kinase assay (LanthaScreen); conditions: for Ki: read-out: Tyk 2 (pKi) (converted)
T3 construct: GST; purchased Life Technologies
T3 sequence (P29597 whole entry): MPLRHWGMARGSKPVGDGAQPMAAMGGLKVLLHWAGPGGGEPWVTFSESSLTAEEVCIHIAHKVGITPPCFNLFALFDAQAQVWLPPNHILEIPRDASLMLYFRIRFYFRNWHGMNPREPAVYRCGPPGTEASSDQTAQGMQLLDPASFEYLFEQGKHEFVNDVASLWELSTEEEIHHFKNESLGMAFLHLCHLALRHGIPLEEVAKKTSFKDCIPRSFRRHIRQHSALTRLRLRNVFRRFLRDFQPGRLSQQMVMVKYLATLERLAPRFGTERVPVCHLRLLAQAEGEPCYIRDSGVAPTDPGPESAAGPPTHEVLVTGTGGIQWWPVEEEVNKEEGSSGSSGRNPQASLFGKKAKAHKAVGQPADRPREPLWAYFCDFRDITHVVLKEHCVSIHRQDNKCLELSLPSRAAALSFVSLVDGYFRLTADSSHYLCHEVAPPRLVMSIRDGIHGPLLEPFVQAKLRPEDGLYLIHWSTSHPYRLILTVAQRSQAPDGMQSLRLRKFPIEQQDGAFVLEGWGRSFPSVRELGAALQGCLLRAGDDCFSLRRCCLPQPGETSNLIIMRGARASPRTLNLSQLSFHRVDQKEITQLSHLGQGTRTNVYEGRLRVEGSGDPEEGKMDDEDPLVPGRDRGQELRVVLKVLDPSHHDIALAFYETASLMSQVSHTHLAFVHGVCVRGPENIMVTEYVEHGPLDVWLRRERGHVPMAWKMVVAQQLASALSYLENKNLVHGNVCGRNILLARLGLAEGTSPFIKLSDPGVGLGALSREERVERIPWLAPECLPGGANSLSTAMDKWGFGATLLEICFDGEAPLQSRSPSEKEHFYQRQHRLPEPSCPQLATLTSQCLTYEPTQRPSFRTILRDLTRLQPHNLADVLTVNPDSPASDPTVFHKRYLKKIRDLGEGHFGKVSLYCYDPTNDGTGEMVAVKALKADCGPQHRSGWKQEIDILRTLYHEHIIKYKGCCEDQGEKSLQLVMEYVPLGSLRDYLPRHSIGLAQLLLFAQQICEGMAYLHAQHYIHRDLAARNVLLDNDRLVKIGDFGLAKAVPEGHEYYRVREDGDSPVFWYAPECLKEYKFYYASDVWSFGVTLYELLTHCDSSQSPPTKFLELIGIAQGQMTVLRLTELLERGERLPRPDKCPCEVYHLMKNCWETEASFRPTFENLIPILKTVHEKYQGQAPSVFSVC
In short: as §1

[4] = tested on: IL-2 stimulated pSTAT5 in Tall-1 T cells; assay: Cellular JAK3 potency assay: inhibition of IL-2 stimulated pSTAT5 in Tall-1 T cells; format: cell-based, human; conditions: for Tall-1 (pIC50): IL-2 stimulated pSTAT5, Tall-1 T cells; for IC50: Homo sapiens, read-out: Tall-1 (pIC50) (converted)
In short: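 Tall-1 human T cells were preincubated with compound for 1 h at 37° C, then stimulated with IL-2 (300 ng/ml final) for 30 min. STAT5 phosphorylation in lysates was read by AlphaLisa bead emission, and IC50 from inhibition curves is given as pIC50 (mean±SD).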

[5] = biological target: T4, JAK3 (Homo sapiens, UniProt P52333); assay: Biochemical JAK3 kinase assay (LanthaScreen); parameters: GST; purchased Life Technologies; conditions: for Ki: read-out: JAK 3 (pKi) (converted)
T4 sequence (P52333 1-1124): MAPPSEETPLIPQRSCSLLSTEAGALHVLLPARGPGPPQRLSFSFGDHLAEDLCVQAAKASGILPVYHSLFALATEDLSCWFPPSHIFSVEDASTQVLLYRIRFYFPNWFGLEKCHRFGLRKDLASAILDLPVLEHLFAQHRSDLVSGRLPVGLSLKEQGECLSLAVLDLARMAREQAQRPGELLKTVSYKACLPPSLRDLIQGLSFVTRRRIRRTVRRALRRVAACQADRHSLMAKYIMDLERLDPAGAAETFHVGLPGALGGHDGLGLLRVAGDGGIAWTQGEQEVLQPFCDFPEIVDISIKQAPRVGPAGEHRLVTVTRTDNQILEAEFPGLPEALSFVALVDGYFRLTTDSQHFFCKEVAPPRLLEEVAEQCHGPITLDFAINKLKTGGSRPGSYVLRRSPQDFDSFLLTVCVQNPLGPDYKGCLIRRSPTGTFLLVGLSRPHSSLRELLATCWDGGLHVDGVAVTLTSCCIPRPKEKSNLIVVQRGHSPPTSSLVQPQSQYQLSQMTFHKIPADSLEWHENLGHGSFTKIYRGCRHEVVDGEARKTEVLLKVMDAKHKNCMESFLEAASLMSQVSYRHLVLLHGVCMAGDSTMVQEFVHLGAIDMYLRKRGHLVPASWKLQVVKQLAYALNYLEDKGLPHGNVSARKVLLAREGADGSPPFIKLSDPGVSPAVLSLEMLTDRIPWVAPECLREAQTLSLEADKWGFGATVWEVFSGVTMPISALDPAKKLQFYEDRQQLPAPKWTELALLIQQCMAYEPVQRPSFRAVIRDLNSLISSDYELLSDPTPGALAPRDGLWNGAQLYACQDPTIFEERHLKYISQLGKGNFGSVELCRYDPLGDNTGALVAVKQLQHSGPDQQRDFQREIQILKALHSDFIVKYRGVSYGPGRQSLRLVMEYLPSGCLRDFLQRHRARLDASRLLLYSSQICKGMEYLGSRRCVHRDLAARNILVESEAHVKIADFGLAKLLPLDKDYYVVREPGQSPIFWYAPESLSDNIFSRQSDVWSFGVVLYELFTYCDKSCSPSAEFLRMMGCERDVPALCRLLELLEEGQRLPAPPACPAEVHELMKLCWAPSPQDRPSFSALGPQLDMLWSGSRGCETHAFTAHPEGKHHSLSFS
In short: as §1

[6] = selectivity JAK3 over JAK1, difference of pKi
[7] = TALL-1, IL-2 stimulated pSTAT5, Tall-1 T cells

T1 sequence (P23458 whole entry): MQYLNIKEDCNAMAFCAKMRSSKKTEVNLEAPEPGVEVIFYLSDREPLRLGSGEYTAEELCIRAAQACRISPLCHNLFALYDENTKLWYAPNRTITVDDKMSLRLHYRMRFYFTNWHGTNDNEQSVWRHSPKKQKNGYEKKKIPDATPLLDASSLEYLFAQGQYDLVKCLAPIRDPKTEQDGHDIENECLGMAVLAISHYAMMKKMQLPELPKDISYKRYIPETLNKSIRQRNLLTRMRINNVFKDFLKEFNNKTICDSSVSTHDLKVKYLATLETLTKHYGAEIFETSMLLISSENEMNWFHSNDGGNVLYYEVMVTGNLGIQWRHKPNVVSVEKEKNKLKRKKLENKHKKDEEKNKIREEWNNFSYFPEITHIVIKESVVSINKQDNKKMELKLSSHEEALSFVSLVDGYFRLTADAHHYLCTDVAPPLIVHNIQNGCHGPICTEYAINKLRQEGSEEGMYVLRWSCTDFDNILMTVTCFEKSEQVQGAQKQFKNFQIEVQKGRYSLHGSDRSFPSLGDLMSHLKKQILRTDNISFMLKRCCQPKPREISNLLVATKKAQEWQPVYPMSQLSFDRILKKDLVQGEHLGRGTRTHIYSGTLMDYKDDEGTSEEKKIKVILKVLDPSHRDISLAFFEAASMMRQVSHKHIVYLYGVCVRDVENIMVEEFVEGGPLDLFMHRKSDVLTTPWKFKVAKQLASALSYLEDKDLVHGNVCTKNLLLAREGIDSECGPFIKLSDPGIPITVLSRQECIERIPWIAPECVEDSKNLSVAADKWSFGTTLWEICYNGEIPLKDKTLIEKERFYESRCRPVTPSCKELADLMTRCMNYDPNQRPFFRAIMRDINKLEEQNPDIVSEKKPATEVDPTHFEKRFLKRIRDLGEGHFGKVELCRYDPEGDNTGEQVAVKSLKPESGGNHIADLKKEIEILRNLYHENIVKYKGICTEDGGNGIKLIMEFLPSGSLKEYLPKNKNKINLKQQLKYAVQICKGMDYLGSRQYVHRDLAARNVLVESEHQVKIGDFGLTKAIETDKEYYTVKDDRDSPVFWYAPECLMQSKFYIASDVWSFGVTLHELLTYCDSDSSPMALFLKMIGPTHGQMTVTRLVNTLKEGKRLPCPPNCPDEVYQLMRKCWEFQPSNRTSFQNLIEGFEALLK

Row | Structure (SMILES) | JAK 1 (pKi) [1] | JAK 2 (pKi) [2] | Tyk 2 (pKi) [3] | Tall-1 (pIC50) [4] | JAK 3 (pKi) [5] | JAK3 (pKi)-JAK1 (pKi) [5, 6] | Ki [1] | Ki [2] | Ki [3] | IC50 ([4]; TALL-1, IL-2 stimulated pSTAT5 in Tall-1 T cells) | Ki [5] | JAK3 (pKi)-JAK1 (pKi) ([5]; selectivity: difference of pKi JAK3 and pKi JAK1) | IC50 [4, 7]
1 | C=CC(=O)N1CC(OCc2nc(-c3ccc(O)cc3)cc3[nH]ncc23)C1 [Compound 16-5] | E (a pKi value of 7 or below (Ki of 100 nM or above)) | E (a pKi value of 7 or below (Ki of 100 nM or above)) | E (a pKi value of 7 or below (Ki of 100 nM or above)) | A (a pIC50 value≥7.5 (IC50≤32 nM)) | A (a pKi value≥10 (Ki≤0.1 nM)) | A (a value of 3 or above) |  |  |  |  |  |  | 
2 | CN(C)C/C=C/C(=O)N1CC(OCc2nc(-c3ccc(O)cc3)cc3[nH]ncc23)C1 [Compound 16-6] | E (a pKi value of 7 or below (Ki of 100 nM or above)) | E (a pKi value of 7 or below (Ki of 100 nM or above)) | E (a pKi value of 7 or below (Ki of 100 nM or above)) | C (a pIC50 value between 6 and 6.7 (IC50 between 1 μM and 200 nM)) | B (a pKi value between 9 and 10 (Ki between 1 nM and 0.1 nM)) | A (a value of 3 or above) |  |  |  |  |  |  | 
3 | CN(C)C/C=C/C(=O)N1CC(OCc2cc(-c3ccc(O)c(F)c3)cc3[nH]ncc23)C1 [Compound 16-7] | E (a pKi value of 7 or below (Ki of 100 nM or above)) | E (a pKi value of 7 or below (Ki of 100 nM or above)) | E (a pKi value of 7 or below (Ki of 100 nM or above)) | B (a pIC50 value between 6.7 (included) and 7.5 (IC50 between 200 nM and 32 nM)) | A (a pKi value≥10 (Ki≤0.1 nM)) | A (a value of 3 or above) |  |  |  |  |  |  | 
4 | C=CC(=O)N1CC(COc2cc(-c3ccc(O)cc3)cc3[nH]nnc23)C1 [Compound 17-1] | E (a pKi value of 7 or below (Ki of 100 nM or above)) | E (a pKi value of 7 or below (Ki of 100 nM or above)) | E (a pKi value of 7 or below (Ki of 100 nM or above)) | B (a pIC50 value between 6.7 (included) and 7.5 (IC50 between 200 nM and 32 nM)) | B (a pKi value between 9 and 10 (Ki between 1 nM and 0.1 nM)) | A (a value of 3 or above) |  |  |  |  |  |  | 
5 | C=CS(=O)(=O)N1CC[C@H](Oc2cc(-c3ccc(O)cc3)cc3[nH]ncc23)C1 [Compound 18, (S)-4-(4-((1-(vinylsulfonyl)pyrrolidin-3-yl)oxy)-1H-indazol-6-yl)phenol] |  |  |  |  |  |  | > 0.1 µM | 0.01 to 0.1 µM | > 0.1 µM | < 0.0316 µM | 0.0001 to 0.001 µM | A (a value of 3 or above) | 
6 | Cc1n[nH]c2cc(-c3ccc(O)c(Cl)c3)cc(OCC3CN(C(=O)/C=C/CN(C)C)C3)c12 [Compound 18-1] |  |  |  |  |  | B (a value of 2.3 to 3) | > 0.1 µM | 0.01 to 0.1 µM | > 0.1 µM |  | 0.0001 to 0.001 µM |  | < 0.0316 µM
7 | CN(C)C/C=C/C(=O)N1CC(COc2cc(-c3cc(F)c(O)cc3F)cc3[nH]ncc23)C1 [Compound 18-3] |  |  |  |  |  | B (a value of 2.3 to 3) | 0.01 to 0.1 µM | 0.01 to 0.1 µM | > 0.1 µM |  | < 0.0001 µM |  | < 0.0316 µM
8 | Cc1cc(-c2cc(OCC3CN(C(=O)/C=C/CN(C)C)C3)c3cn[nH]c3c2)ccc1O [Compound 18-8] | E (a pKi value of 7 or below (Ki of 100 nM or above)) | E (a pKi value of 7 or below (Ki of 100 nM or above)) | E (a pKi value of 7 or below (Ki of 100 nM or above)) | B (a pIC50 value between 6.7 (included) and 7.5 (IC50 between 200 nM and 32 nM)) | B (a pKi value between 9 and 10 (Ki between 1 nM and 0.1 nM)) | A (a value of 3 or above) |  |  |  |  |  |  | 
9 | C=CC(=O)N1CC(COc2cc(-c3ccc(O)c(C)c3)cc3[nH]ncc23)C1 [Compound 18-9] |  |  |  |  |  | A (a value of 3 or above) | > 0.1 µM | > 0.1 µM | > 0.1 µM |  | < 0.0001 µM |  | < 0.0316 µM
